# Measurements: PMC5442318, “Hundreds of dual-stage antimalarial molecules discovered by a functional gametocyte screen” (Nature Communications, 2017)
# Like-named read-outs stand apart in the source and are kept apart here.
# What was measured:
# [1] = tested on: P. falciparum stages IV–V gametocytes; assay: Gametocytocidal ATP-depletion assay (gametocyte ATP bioluminescence); format: cell-based, Plasmodium falciparum
# How it was run: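 Purified stage IV–V gametocytes (12,500/well) incubated with compound for 48 h at 37 °C under 3% O2/5% CO2. ATP measured by BacTiter-Glo luminescence as a viability surrogate; hits tested at 2 μM single concentration.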
# [2] = tested on: P. falciparum stage V female gametocytes; assay: P. falciparum female gametocyte activation assay (Pf FGAA), 24 h or 48 h preincubation, Pfs25 expression readout; format: cell-based, Plasmodium falciparum NF54; conditions: mean, read-out: Gametocytes mean Pf FGAA IC50
# How it was run: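 Purified stage V gametocytes from P. falciparum NF54 gametocyte cultures were exposed to compounds for 24 h or 48 h at 37 °C under 3% O2/5% CO2, then activated by temperature drop plus xanthurenic acid. Activated females were stained with Cy3-anti-Pfs25 (0.5 μg ml^−1) for 24 h at 26 °C and counted by high-content imaging; pIC50 by nonlinear regression.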
# [3] = tested on: HepG2 cells; assay: HepG2 cytotoxicity assay; format: cell-based; conditions: mean
# How it was run: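 After compound incubation, plates and CellTiter-Glo reagent were brought to room temperature for 30 min. The reagent was then added, and luminescence was read after a 10 min room-temperature stabilization.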
# [4] = tested on: P. falciparum asexual blood stages; conditions: read-out: Pf Asexual blood stages XC50, cited from earlier work
# [5] = TCAMS data, ref 1 (Gamo et al., 2010)
# [6] = P. falciparum female gametocytes
# [7] = TCAMS asexual blood stage data, ref 1 (Gamo, F. J. et al., Nature 465, 305-310, 2010)
Compound,Gametocytes mean ATP inhibition at 2µM (%) [1] [%],IC50 [2] [nM],HepG2 cells mean TOX50 [3] [µM],"IC50 [4, 5] [nM]",Gametocytes mean ATP inhibition at 2µM [1] [%],"IC50 [2, 6] [nM]",HepG2 cells mean TOX50 ([3]; HepG2 cells) [µM],"IC50 [4, 7] [nM]"
O=C(O)C(F)(F)F.O=S(=O)(c1ccccc1)n1ccc2cc(Nc3ncnc4cc(C#C[C@H]5CCCN5)sc34)ccc21 [TCMDC-138913],75.13,1170,5.50,1070,,,,
CS(=O)(=O)O.CSc1ccc2ccccc2c1CCNCCCCNCCc1c(SC)ccc2ccccc12 [TCMDC-137763],93.38,1010,1.82,410,,,,
Nc1ccc2[nH]cc(C3CCN(CC4CCN(C(=O)/C=C/c5ccc(Cl)c(Cl)c5)CC4)CC3)c2n1 [TCMDC-140061],-11.61,1770,5.89,700,,,,
Cn1c(Sc2ncnc3sccc23)nc2ccccc21 [TCMDC-124514],,,,,17.03,1250,>100,190
Cc1sc2nc(CN3CCCC3)nc(-n3c(NCCO)nc4ccccc43)c2c1C [TCMDC-124811],,,,,42.91,7050,25.73,1240
COc1ccc(-c2cnc3[nH]cc(-c4ccncc4)c3c2)cc1OC [TCMDC-135853],,,,,76.41,2260,11.79,130
CC(C)c1ccc(CN2CCC(CNC(=O)c3cc(-c4cccc(F)c4)cs3)C2)cc1.O=C(O)C(F)(F)F (stereo not drawn) [TCMDC-134437],,,,,7.50,1370,6.24,1660
CCc1c(CCNC/C=C/C=C/CNCCc2ccc(OC)c(OC)c2CC)ccc(OC)c1OC.Cl [TCMDC-132061],,,,,13.62,2560,4.68,970
NCc1ccc(CNCc2cccc(-c3ccc(-c4nc5cc(C(F)(F)F)ccc5[nH]4)cc3)c2)cc1.O=C(O)C(F)(F)F [TCMDC-132811],,,,,-6.09,830,14.65,260
COc1cc2nc(N3CCC(CNC(=O)c4ccc(-c5ccc(-c6noc(C)n6)cc5)cc4)CC3)nc(N)c2cc1OC [TCMDC-138754],90.89,1050,4.90,140,,,,
Cl.N=C(NCCCCC1CCCCC1)c1cccc(C(=N)NCCCCC2CCCCC2)n1 [TCMDC-137452],95.86,1050,1.82,400,,,,
CN(C)CCN(C)Cc1ccc(-c2ccc3c(Nc4ccc(Oc5ccccn5)cc4)ccnc3c2)o1 [TCMDC-138426],16.13,2050,5.37,420,,,,
CCCCOc1c(CNCCCCCCNCc2ccc3ccccc3c2OCCCC)ccc2ccccc12.CS(=O)(=O)O [TCMDC-137975],37.85,1490,2.21,870,,,,
CC(C)(C)Nc1cc(C2CC2)nc(-c2ccccn2)n1 [TCMDC-124453],,,,,81.87,100,>100,680
CN(CCCNCc1ccc2ccccc2c1)CCCNCc1ccc2ccccc2c1.Cl [TCMDC-137908],72.34,90,5.01,390,,,,
CCC(CSC1CCCCC1)N(C)CCN(C)C(CC)CSC1CCCCC1.Cl (stereo not drawn) [TCMDC-131456],,,,,36.19,1250,0.0654,310
O=C(O)C(F)(F)F.O=S(=O)(NCCN1CCCC1)c1cccc(-c2ccc(CNC3Cc4ccccc4C3)cc2)c1 [TCMDC-132241],,,,,3.92,3100,6.46,660
Br.CCc1c(CCNCCCCCCNCCc2ccc(Br)cc2)ccc(O)c1O [TCMDC-132044],,,,,6.14,1300,7.96,900
COc1cc2nc(N3CCN(C(=O)c4c(Cl)nsc4-c4ccccc4Cl)CC3)nc(N)c2cc1OC.O=C(O)C(F)(F)F [TCMDC-138186],69.90,990,5.89,530,,,,
CC(C)(C)c1ccc(CNC(=O)/C=C/c2ccc(CNC3CCNCC3)cc2)cc1 [TCMDC-140773],8.96,1920,9.47,1090,,,,
CCc1c(CCNCCCCCCNCCc2ccc([N+](=O)[O-])cc2)ccc(OC)c1OC.Cl [TCMDC-132066],,,,,24.70,1460,4.57,730
O=C(c1ccc([N+](=O)[O-])o1)N1CCC(Cc2ccc(C(F)(F)F)cc2)CC1 [TCMDC-124805],,,,,93.11,160,27.05,170
Nc1nc(N)c2c(ccc3c2ccn3Cc2cccc(F)c2)n1 [TCMDC-137810],0.71,1420,0.06,3,,,,
CC(C)C1=CC(=NOS(=O)(=O)c2ccccc2)C=C(C(C)C)C1=O [TCMDC-124172],,,,,65.50,880,21.70,710
CCc1c(CCNCCCCCCNC(C)(C)Cc2ccc3c(c2CC)OCO3)ccc(OC)c1OC.Cl [TCMDC-132055],,,,,19.03,1220,4.27,930
N=C(/N=C(/NCCCCCCN/C(=N/C(=N)NCc1ccc(Cl)c(Cl)c1)N1CCCCC1)N1CCCCC1)NCc1ccc(Cl)c(Cl)c1 [TCMDC-131816],,,,,67.07,2610,43.18,570
COc1ccc(CNC2Cc3ccccc3C2)cc1-c1ccc(OC)c(S(=O)(=O)NCCN2CCCC2)c1.O=C(O)C(F)(F)F [TCMDC-132251],,,,,24.03,2700,7.17,770
Cn1c(Nc2cc(C(C)(C)C)on2)nc2cc(Nc3ccnc(Nc4cccc(S(=O)(=O)N5CCOCC5)c4)n3)ccc21 [TCMDC-134098],,,,,17.18,1190,8.13,530
FC(F)(F)c1ccc2[nH]c(-c3ccc(-c4cccc(CNCCN5CCNCC5)c4)cc3)nc2c1.O=C(O)C(F)(F)F [TCMDC-132864],,,,,10.30,1710,12.31,1030
CC(C)(C)c1ccc(CN2CCC(CNC(=O)c3cc(-c4cccc(Cl)c4)cs3)C2)cc1.O=C(O)C(F)(F)F (stereo not drawn) [TCMDC-134446],,,,,-13.17,990,7.42,1160
